According to patent US7554012B2, “Plants and plant cells exhibiting resistance to AMPA, and methods for making the same” (priority 1998, dated 2009):
Several values for one entry are separate records, joined by “and”; a condition that tells them apart may be missing. Equal values may be shown once.

Assays:
[1] = system: wild type Coker 312 plants; experiment: AMPA spray on cotton plants; type: in vivo, cotton (Gossypium hirsutum L.)
Description: Previously identified plants transformed with a double gene glyphosate resistance cassette comprised of EPSPS and GOX encoding genes were determined to be resistant to glyphosate when applied at 48 ounces per acre through the 6-7 leaf stage, however severe bleaching of the leaves was observed. This phytotoxic effect was presumed to be due to the formation of AMPA as a result of GOX mediated glyphosate degradation. To test this, AMPA was sprayed at three different rates onto wild type Coker 312 plants. […] To test this, cotton plants expressing GOX or GOX plus EPSPS alone or in combination with PhnO expression were treated with [^14C]-glyphosate, and the metabolism of the isotope labeled glyphosate was monitored in leaf tissue seven days after application.

E. coli JM101 = experiment: Cell growth in MOPS medium with AMPA; type: cell-based; set-up: key: — indicates no measurable growth; conditions: 0.2 mM AMPA, growth period 54 hrs
Description: The phn operon is induced when E. coli is grown in media lacking or limited in a phosphate source. Therefore, E. coli GB993 was compared to the parental JM101 strain when grown in MOPS minimal media. GB993 and its mpu− parent strain, JM101, were grown under identical conditions, varying only the amount of phosphate available or supplemented with AMPA. 50 ml cultures were grown in duplicate in 250 ml sidearm-Erlenmeyer flasks with continuous shaking at 37° C. in MOPS medium (5 mls of 10×MOPS salts, 0.5 ml 1 mg/ml thiamin, 0.5 ml 20% glucose, to 50 mls with dH2O) containing 0.1 or 5 mM phosphate, or 0.1 mM phosphate supplemented with approximately 0.2 mM AMPA, pH 7.0. The cultures were generally grown to about 220 Klett units and the cells were pelleted by centrifugation, resuspended in 1.5 mls of 10 mM Tris/1 mM DTT, and lysed with two passes through a French press at […]. Lysates were centrifuged to remove debris and the supernatant passed through a G-50 column equilibrated with 50 mM Tris pH 7.0.

[2] = system: recombinant cotton line 4268 (GOX/PhnO); experiment: [^14C]-glyphosate metabolism in cotton line 4268; type: in vivo, cotton (Gossypium hirsutum L.); conditions: GOX/PhnO Plants
Description: The metabolism of [^14C]-glyphosate in recombinant cotton lines 4268 (GOX/PhnO) and 3753 (EPSPS/GOX) was also studied. Plants in this study were treated as indicated above for cotton line 4416, by applying droplets of ROUNDUP ULTRA fortified with [^14C]-glyphosate to a single leaf on each plant at the three to four leaf stage. Treated leaves were harvested and rinsed with water, then ground and extracted, and extracts were analyzed by HPLC as described above for the presence of [^14C]-glyphosate, [^14C]-AMPA, and N-acetyl-[^14C]-AMPA. New growth, including the meristem and new leaves that emerged following application were also extracted and analyzed.

transformed corn callus = experiment: [^14C]-glyphosate metabolism assay in corn callus
Description: A [^14C]-glyphosate metabolism assay was used for determining whether transformed corn callus tissues contain functioning forms of these enzymes. The assay was developed to screen large numbers of corn callus samples. Callus was obtained from Monsanto Company and Dekalb Seed Company corn transformation groups. The Monsanto callus samples, individually designated as callus lines “19nn-nn-nn” in Table 16, were produced from HI II×B73 corn embryos. Callus samples were bombarded with complete covalently closed circular recombinant plant transformation vector plasmid DNA or with linear DNA fragments isolated from such plasmids 25-50 days after embryo isolation. Transformed lines were identified 8-14 weeks after bombardment. These lines were sub-cultured on fresh media every 2 weeks and were 5-7 months old when used in the metabolism assay. The Dekalb callus lines OO, OR, OW, OX, and OY were obtained from HI II×AW embryos. All line designations correspond to the recombinant plasmid or linear fragment used for ballistic transformation of callus tissue as noted in the legend to Table 16.
4.5 mCi of N-phosphono-[^14C]-methylglycine ([^14C]-glyphosate) was obtained from the Monsanto Radiosynthesis group in a 1.5 mM aqueous solution, having a specific radioactivity of 39.4 mCi/mM (5.2×10^5 dpm/microgram). The sample was identified with code number C-2182.2. A stock solution sterilized by filtration through a 0.2-micron Acrodisk (Gelman no. 4192) was prepared by combining 2.5 mL [^14C]-glyphosate (3.3×10^8 dpm) with 2.5 mL of corn callus growth medium (N6 medium) and 5.0 mg of Mon 0818 surfactant. [^14C]-glyphosate in the resulting dose solution was 0.75 mM. The N6 medium was described by Chu et al. (1975) and was prepared using salts and vitamins obtained from Sigma Chemical Company, St. Louis, Mo. Mon 0818 surfactant is ethoxylated tallowamine, the surfactant used in Roundup herbicide. The dose solution was subjected to HPLC analysis as described in Example 2. […] Two additional dose solutions were prepared using these reagents, each of which were scaled three fold to 15 ml volumes based on the preparation method described above.
Under aseptic conditions, corn callus samples were transferred to individual wells of sterile 48-well COSTAR™ cell culture clusters (cat. No. 3548). The individual callus samples were not weighed. However, in several cases the total weight of the callus samples in a 48-well plate was determined. Typically, the average weight of individual callus samples was approximately 200-250 mg. In each assay, a nontransformed callus sample, HI II×B73, was included as a control. 50 μL of dose solution containing 3.3×10^6 dpm of [^14C]-glyphosate was added to each callus sample. 48-well plates were sealed with parafilm and placed in a plastic bag containing a wet paper towel to provide a moist atmosphere. Bags were closed and placed in a dark drawer at 25° C. for 10 days. Each callus sample was subsequently transferred to a labeled microcentrifuge tube (VWR, 1.7-mL, cat. No. 20170-620). 1.0 mL of de-ionized water was added to each tube, and the tubes were closed and placed in round 20-tube floating microcentrifuge racks (Nalge cat. no. 5974-1015). These microfuge tubes were floated in boiling water for 30 minutes, shaken using a vortex mixer, and centrifuged for 5 minutes using a Fisher brand microcentrifuge. 120-μL supernatant samples were removed for analysis by HPLC as described below. The samples were injected using a Waters WISP autoinjector.

[3] = FIG. 3, callus transformed with GOX and AMPA acetyltransferase
[4] = control callus HI II×B73, no inserted genes

NCP(=O)(O)O [AMPA, N-aminomethyl phosphonic acid]
phytotoxic effect on plants ([1]; 64 ounces per acre, eight days post-application): Leaf chlorosis and stunted growth | phytotoxic effect on plants ([1]; 640 ounces per acre, four days post-application): Leaf chlorosis and stunted growth | Harvest Density (E. coli JM101): —

N-phosphono-methyl-glycine [Glyphosate]
% [^14C] metabolite in Glyphosate Treated Leaf Extract: AMPA ([2]; listed as [^14C]-Glyphosate): 3.2% and 5.7% and 3.0% and 4.8% | % [^14C] metabolite in Glyphosate Treated Leaf Extract: Glyphosate ([2]; listed as [^14C]-Glyphosate): 54.4% and 58.3% and 76.7% and 63.9% | % [^14C] metabolite in New Growth Extract: AMPA ([2]; listed as [^14C]-Glyphosate): 1.2% and 1.0% and 1.5% | % [^14C] metabolite in New Growth Extract: Glyphosate ([2]; listed as [^14C]-Glyphosate): 0.8% and 1.1% and 3.4% | % [^14C] metabolite in New Growth Extract: N-Acetyl-AMPA ([2]; listed as [^14C]-Glyphosate): 94.7% and 91.0% and 89.9% and 91.5% | % [^14C] metabolite in New Growth Extract: N-Acetyl-AMPA ([2]; listed as [^14C]-glyphosate): 90-95% | N-acetyl-[^14C]AMPA, of total observed [^14C] (transformed corn callus; [3]): 4.54% | [^14C] AMPA, of total observed [^14C] (transformed corn callus; [3]): 1.71% | [^14C] glyphosate, of total observed [^14C] (transformed corn callus; [3]): 92.5% | Percent N-Acetyl-[^14C]-AMPA (transformed corn callus; callus OR516 transformed with pMON32926): 0.50-4.54% | Percent N-Acetyl-[^14C]-AMPA (transformed corn callus; callus OR516 transformed with pMON32926, listed as [^14C]-glyphosate): 1.91% | Percent [^14C]-AMPA (transformed corn callus; callus line transformed with pMON32571): 2.89% | Percent N-Acetyl-[^14C]-AMPA (transformed corn callus; callus line transformed with pMON32573): 0.39% | Percent N-Acetyl-[^14C]-AMPA (transformed corn callus; callus line transformed with pMON32932): 0.28% | Percent N-Acetyl-[^14C]-AMPA (transformed corn callus; callus line transformed with pMON32938): 0.21% | Percent [^14C]-AMPA (transformed corn callus; callus line transformed with pMON32946): 2.51% | Percent [^14C]-AMPA (transformed corn callus; callus line transformed with pMON32947): 1.99% | Percent N-Acetyl-[^14C]-AMPA (transformed corn callus; callus line transformed with pMON32952): 0.37% | Percent N-Acetyl-[^14C]-AMPA (transformed corn callus; callus lines transformed with pMON32571, listed as [^14C]-glyphosate): 0.22% and 0.25% | Percent N-Acetyl-[^14C]-AMPA (transformed corn callus; callus lines transformed with pMON32931, listed as [^14C]-glyphosate): 0.40% and 0.75% and 0.55% | Percent [^14C]-AMPA (transformed corn callus; callus lines transformed with pMON32936, listed as [^14C]-glyphosate): 2.29% and 3.05% and 2.15% and 2.06% | Percent [^14C]-AMPA (transformed corn callus; callus lines transformed with pMON32938, listed as [^14C]-glyphosate): 2.41% and 2.90% | Percent N-Acetyl-[^14C]-AMPA (transformed corn callus; callus lines transformed with pMON32946, listed as [^14C]-glyphosate): 0.77% and 0.85% | Percent N-Acetyl-[^14C]-AMPA (transformed corn callus; callus lines transformed with pMON32947, listed as [^14C]-glyphosate): 0.60% and 0.71% | N-acetyl-[^14C]-AMPA produced (transformed corn callus; [4]): no detectable levels | [^14C]-AMPA produced (transformed corn callus; [4]): only background levels
